A short description of series [1]: Microsomal stability, rat liver microsomes. The class given is in vitro ADME. Particulars: percentage of compound remaining after 60 minutes, 3 μM compound. In short, it runs like this:
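Percent parent remaining after 60 min was determined by LCMS against a time-zero sample quenched before microsome addition. Incubations ran at 37°C with liver microsomes and a G6PDH-based NADPH-regenerating cofactor mix. Quench was MeOH or ACN (1:1).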
(Liver microsomes are a subcellular fraction often used to study metabolism.)

Another series deals with MMP13 in SW1353 cells. Description: OSM/IL-1β signaling assay (MMP13 levels in SW1353 cells).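 Note: secreted MMP13 captured by antibody, activated with APMA and its activity read by fluorescence, inhibition scaled between vehicle-treated triggered wells (0%) and untriggered wells (100%).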 The class given is cell-based. Particulars: Homo sapiens; SW1353 cells, OSM and IL-1β triggered, MMP13 levels 48 hours after triggering; read-out: MMP13 EC50.
The test system of series [2] is JAK-STAT signalling in HeLa cells. Kind of series: JAK-STAT signalling assay (OSM-triggered pSTAT1(2)-luciferase reporter in HeLa cells). It is filed as cell-based. Particulars: Homo sapiens; HeLa cells, OSM-triggered pSTAT1(2)-luciferase reporter; read-out: STAT signalling EC50. In short, it runs like this: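 Read-out is oncostatin M–driven pSTAT1(2)-luciferase activity, corrected by co-transfected LacZ β-galactosidase, in transiently transfected HeLa cells cultured overnight at 37 °C, 10% CO2. Inhibition percentages against positive and negative controls were plotted across doses to derive EC50.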

For series [3], the target named is Recombinant human JAK2 catalytic domain (Homo sapiens (Human), UniProt O60674). Kind of series: JAK2 inhibition assay. The class given is biochemical. Particulars: semi-quantitative score. In short, it runs like this:
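Activity was taken as vehicle cpm minus cpm with 10 μM staurosporine, and inhibition was expressed on that scale. Incubation was 90 min at 30 °C, followed by acid quench, phosphoric acid washes and Microscint counting. Compounds were tested as dose series to obtain IC50.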

For series [4], the target named is Recombinant human JAK1 catalytic domain (Homo sapiens (Human), UniProt P23458). Description: JAK1 inhibition assay. The class given is biochemical. In short, it runs like this: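 IC50 values come from dose-response series, with each point expressed as percent inhibition of cpm. Vehicle sets full activity and 10 μM staurosporine sets background. Incorporated radioactivity counted by scintillation after washing with 75 mM phosphoric acid.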
Sequence of Recombinant human JAK1 catalytic domain (P23458 850-1154): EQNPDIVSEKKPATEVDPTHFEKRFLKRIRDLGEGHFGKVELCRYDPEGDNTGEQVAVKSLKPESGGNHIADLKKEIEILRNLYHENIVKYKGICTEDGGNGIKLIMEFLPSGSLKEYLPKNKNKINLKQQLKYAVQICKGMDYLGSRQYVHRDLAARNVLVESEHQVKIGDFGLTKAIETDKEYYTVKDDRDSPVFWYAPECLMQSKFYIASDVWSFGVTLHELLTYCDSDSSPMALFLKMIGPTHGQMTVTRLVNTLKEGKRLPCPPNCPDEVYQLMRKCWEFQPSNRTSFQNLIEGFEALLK

Molecules are shown by their SMILES. Read-outs that look alike come from different tables or passages of the source.

The term EC50 denotes the concentration at which the effect is half-maximal. What is called IC50 is the concentration that inhibits the measured activity by half.

Sequence of Recombinant human JAK2 catalytic domain (O60674 808-1132): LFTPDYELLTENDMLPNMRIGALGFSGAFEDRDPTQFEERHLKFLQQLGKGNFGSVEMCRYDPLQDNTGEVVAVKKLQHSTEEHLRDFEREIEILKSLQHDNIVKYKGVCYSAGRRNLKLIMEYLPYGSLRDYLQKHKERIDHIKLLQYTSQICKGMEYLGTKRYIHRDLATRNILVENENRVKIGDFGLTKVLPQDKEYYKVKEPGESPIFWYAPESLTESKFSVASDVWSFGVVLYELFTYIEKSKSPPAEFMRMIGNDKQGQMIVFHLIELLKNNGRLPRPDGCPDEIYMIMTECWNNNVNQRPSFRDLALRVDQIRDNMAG

In the case of `O=C(Nc1nc2cccc(-c3ccc(CN4CCOCC4)cc3)n2n1)C1CC1` [Compound 18, N-(5-(4-(morpholinomethyl)phenyl)-[1,2,4]triazolo[1,5-a]pyridin-2-yl)cyclopropanecarboxamide], the “Microsomal Stability Rat (%)” value in series [1] is on record as “** (** 26-50)”. For the same compound, the EC50 (in the series on MMP13 in SW1353 cells; in series [2]) was over 1000 nM in each case. For the same compound, in series [3], the IC50 was over 1000 nM.
`CC1CCCN(C(=O)c2ccc(-c3cccc4nc(NC(=O)C5CC5)nn34)cc2)C1` (centres unmarked) [Compound 145, N-(5-(4-(3-methylpiperidine-1-carbonyl)phenyl)-[1,2,4]triazolo[1,5-a]pyridin-2-yl)cyclopropanecarboxamide]: the “Microsomal Stability Rat (%)” value in series [1] is listed as “* (* 0-25)”. Besides, the results for the EC50 (with MMP13 in SW1353 cells; in series [2]) were over 1000 nM and 501 to 1000 nM, respectively. Besides, in series [4] (semi-quantitative score), the IC50 was under 100 nM.
For `N#Cc1ccc(COc2ccc(-c3cccc4nc(NC(=O)C5CC5)nn34)cc2)cn1` [Compound 176, N-(5-(4-((6-cyanopyridin-3-yl)methoxy)phenyl)-[1,2,4]triazolo[1,5-a]pyridin-2-yl)cyclopropanecarboxamide], in series [1], the “Microsomal Stability Rat (%)” value is “**** (**** 76-100)”. The EC50 with MMP13 in SW1353 cells was in the range of 1 to 500 nM; in series [2], 101 to 500 nM. The IC50 in series [4] and in series [3] was under 100 nM each time.
Consider `CC1CN(C(=O)c2ccc(-c3cccc4nc(NC(=O)C5CC5)nn34)cc2)CC(C)O1` (centres unmarked) [Compound 215, Cyclopropanecarboxylic acid {5-[4-(2,6-dimethyl-morpholine-4-carbonyl)-phenyl]-[1,2,4]triazolo[1,5-a]pyridin-2-yl}-amide], for which, in series [1], the “Microsomal Stability Rat (%)” value is on record as “**** (**** 76-100)”. The EC50 in the series with MMP13 in SW1353 cells is over 1000 nM; in series [2], 101 to 500 nM. In addition, the figures for the IC50 in series [4] (semi-quantitative score) and in series [3] were under 100 nM and 101 to 500 nM, respectively.
For the compound `CC1(C)CN(C(=O)c2ccc(-c3cccc4nc(NC(=O)C5CC5)nn34)cc2)C1` [Compound 330, Cyclopropanecarboxylic acid (5-[4-(3,3-dimethyl-azetidine-1-carbonyl)-phenyl]-[1,2,4]triazolo[1,5-a]pyridin-2-yl}-amide], the “Microsomal Stability Rat (%)” value in series [1] is “**** (**** 76-100)”. Moreover, the values for the EC50 (in the series on MMP13 in SW1353 cells; in series [2]) were 501 to 1000 nM and 1 to 100 nM, respectively. Also, the IC50 in series [4] (semi-quantitative score) was under 100 nM; in series [3] it was 101 to 500 nM.

The record behind these values is patent US10206907B2, “Compounds useful for the treatment of degenerative and inflammatory diseases” (GALAPAGOS NV, priority 2008, dated 2019).
